Holding throughout (experiment): area under concentration-response curve (viability) (AUC (a.u.)); higher = less active
Common to all, as to conditions: 48 h

One experiment concerns CU-ACC1. In outline: (§1)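 For each of three adrenocortical carcinoma cell lines, 500–1,000 cells/well were placed in 5 µL medium in 1,536-well plates. A 23 nL volume of every library compound was added at 11 concentrations. Following 48 h, a 15-minute room-temperature CellTiter-Glo step preceded luminescence reading, with signals normalised per plate to vehicle and empty-well controls. AC50 and area under the curve were derived by curve fitting, retaining only inhibitory or non-responding curve classes.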

In a further experiment the test system is CU-ACC2. The procedure, abridged:
as §1

Another experiment relates to NCI-H295R. The procedure, abridged: as §1

Regarding `C[C@]12CC[C@H]3[C@@H](C\C=C/4C[C@@H](O)CC[C@]34C)[C@@H]1CCC2=O`, the “area under concentration-response curve” value in the experiment on CU-ACC1 stood at 523; in the experiment with CU-ACC2, 591; in the experiment on NCI-H295R, 479.

Take `CN(CC(=O)N(Cc1ccc(C2CCCCC2)cc1)c1ccc(C(=O)O)c(O)c1)[S+](=O)([O-])c1c(F)c(F)c(F)c(F)c1F`: the “area under concentration-response curve” value with CU-ACC1 worked out at 486; in the experiment on CU-ACC2, 558; with NCI-H295R it was 536.

`CC(=O)OCC(=O)[C@@]1(O)CC[C@H]2[C@@H]3CCC/4=C/C(=O)/C=C\[C@]4(C)[C@H]3[C@@H](O)C[C@]12C`: the “area under concentration-response curve” value with CU-ACC1 came out at 460; in the experiment on CU-ACC2, 471; with NCI-H295R it was 506.

As to `Cc1ccc(NC(=O)Nc2nnc(Sc3ncnc4cc(OCCCN5CCOCC5)ccc34)s2)cc1`, the “area under concentration-response curve” value is 521 in the experiment on CU-ACC1, 583 with CU-ACC2 and 511 with NCI-H295R.

Take `CC1=CC=CC=C1N2\C(=N/C3=C(C(=CC=C3)C)C2=O)C[N]4C=NC5=C4N=CN=C5N`: the “area under concentration-response curve” value was 555 with CU-ACC1, 643 in the experiment with CU-ACC2 and 583 with NCI-H295R.

Consider `CN(CCOc1ccc(CC2SC(=O)NC2=O)cc1)c1ccccn1` (stereo not drawn), for which the “area under concentration-response curve” value turned out to be 515 in the experiment on CU-ACC1, 644 with CU-ACC2 and 576 in the experiment on NCI-H295R.

`N#C/C(=C\c1ccc(O)c(O)c1)C(=O)NCc1ccccc1`: the “area under concentration-response curve” value with CU-ACC1 turned out to be 427; with CU-ACC2, 605; with NCI-H295R, 572.

For `Nc1nc(Cl)nc2c1ncn2[C@H]1C[C@H](O)[C@@H](CO)O1`, the figures for the “area under concentration-response curve” value in the experiment with CU-ACC1, in the experiment with CU-ACC2 and in the experiment on NCI-H295R were 558, 601 and 537, respectively.

Regarding `CCOP(=O)(OCC)C(C)NC(=O)N(CCCl)N=O` (stereo not drawn), the results for the “area under concentration-response curve” value in the experiment with CU-ACC1, in the experiment on CU-ACC2 and in the experiment on NCI-H295R were 488, 540 and 510, respectively.

Take `CCNC(=O)CCC/C=C\C[C@@H]1[C@@H](/C=C/C(O)CCc2ccccc2)[C@@H](O)C[C@@H]1O` (stereo partly drawn): the “area under concentration-response curve” value with CU-ACC1 came out at 508; with CU-ACC2, 646; with NCI-H295R, 571.

As to `OC(CCN1CCCCC1)(C2CC\3CC2\C=C3)C4=CC=CC=C4` (stereo not drawn), the entries for the “area under concentration-response curve” value with CU-ACC1, in the experiment with CU-ACC2 and in the experiment with NCI-H295R were 522, 582 and 519, respectively.

In the case of `ClC1=C(N\C2=N\CCN2)C3=NSN=C3C=C1`, the “area under concentration-response curve” value in the experiment with CU-ACC1 came out at 412; in the experiment on CU-ACC2, 609; with NCI-H295R, 541.

Turning to `CC1=CC2=C(O1)C(=C3OC(=O)\C=C(C)/C3=C2)C`, the “area under concentration-response curve” value in the experiment on CU-ACC1 was 482; in the experiment on CU-ACC2, 581; in the experiment on NCI-H295R it was 516.

`CC1=NN(c2ccc(C(=O)O)cc2)C(=O)/C1=C/c1ccc(-c2cc(C)c(C)cc2[N+](=O)[O-])o1`: the “area under concentration-response curve” value in the experiment on CU-ACC1 stood at 556; with CU-ACC2, 661; with NCI-H295R, 585.

For `COc1ccc2cc([C@H](C)C(=O)O)ccc2c1`, the “area under concentration-response curve” value with CU-ACC1 stood at 503; with CU-ACC2, 510; in the experiment with NCI-H295R it was 524.

Regarding `C=C[C@H]1CN2CCC1C[C@@H]2C(O)c1ccnc2ccc(OC)cc12` (stereo partly drawn), the “area under concentration-response curve” value worked out at 509 in the experiment with CU-ACC1, 595 in the experiment on CU-ACC2 and 504 in the experiment on NCI-H295R.

For `Nc1nc(OCc2cc(Br)cs2)c2[nH]cnc2n1`, the figures for the “area under concentration-response curve” value in the experiment on CU-ACC1, with CU-ACC2 and in the experiment on NCI-H295R were 516, 616 and 552, respectively.

Regarding `Cn1cc(-c2ccc3nnc(Sc4ccc5ncccc5c4)n3n2)cn1`, the “area under concentration-response curve” value with CU-ACC1 is 516; in the experiment on CU-ACC2 it was 447; in the experiment on NCI-H295R it was 525.

As for `O=C(O)CSCC(=O)NC1CCSC1=O` (stereo not drawn), the “area under concentration-response curve” value in the experiment with CU-ACC1 was determined as 379; in the experiment on CU-ACC2 it was 415; in the experiment on NCI-H295R, 405.

Turning to `COc1ccc2cccc(CCNC(C)=O)c2c1`, the “area under concentration-response curve” value is 515 in the experiment on CU-ACC1, 589 with CU-ACC2 and 579 in the experiment with NCI-H295R.

Take `CNC[C@H](O)c1cccc(O)c1`: the figures for the “area under concentration-response curve” value in the experiment with CU-ACC1, in the experiment with CU-ACC2 and with NCI-H295R were 440, 508 and 449, respectively.

Regarding `COC1=CC=C(C=C1)C(=O)C2CCN(CC2)CC(=O)N(CC3CC3)C\C4=N\C5=C(\COCC5)C(=O)N4`, the entries for the “area under concentration-response curve” value in the experiment on CU-ACC1, with CU-ACC2 and in the experiment with NCI-H295R were 495, 564 and 520, respectively.

`O=C1NC(=O)/C(=C/c2ccc(-c3ccc(F)cc3O)o2)S1`: the figures for the “area under concentration-response curve” value in the experiment with CU-ACC1, in the experiment with CU-ACC2 and in the experiment on NCI-H295R were 580, 611 and 575, respectively.

As to `OC[C@H]1OCC(O1)[N@@]2C=CC(N)=NC2=O` (stereo partly drawn), the entries for the “area under concentration-response curve” value in the experiment on CU-ACC1, with CU-ACC2 and in the experiment on NCI-H295R were 423, 451 and 494, respectively.

On to `CNC(=O)c1ccc(-c2cnc3ncc(Cc4ccc5ncccc5c4)n3n2)cc1F`, for which the “area under concentration-response curve” value is 481 with CU-ACC1, 520 with CU-ACC2 and 511 in the experiment on NCI-H295R.

With `CC(C)OC(=O)C(C)(C)Oc1ccc(C(=O)c2ccc(Cl)cc2)cc1`, the “area under concentration-response curve” value in the experiment with CU-ACC1 amounted to 593; with CU-ACC2, 608; in the experiment with NCI-H295R, 517.

With `COc1ccc([S+](=O)([O-])NCc2ccc(C(=O)NCCc3ccc(Cl)cn3)cc2)cc1`, the “area under concentration-response curve” value with CU-ACC1 came to 565; with CU-ACC2, 654; in the experiment with NCI-H295R it was 614.

`C[C@H](CCC(=O)O)[C@H]1CC[C@H]2[C@@H]3[C@@H](O)C[C@@H]4C[C@H](O)CC[C@]4(C)[C@H]3CC[C@]12C`: the “area under concentration-response curve” value with CU-ACC1 was 519; in the experiment with CU-ACC2 it was 496; in the experiment with NCI-H295R, 538.

In the case of `Cc1nc2ccc(-n3ncc(C(=O)c4cc5ccccc5[nH]4)c3N)cc2[nH]1`, the “area under concentration-response curve” value was determined as 550 in the experiment on CU-ACC1, 595 in the experiment on CU-ACC2 and 519 with NCI-H295R.

As for `C[C@]1(c2nc3c(C(N)=O)cccc3[nH]2)CCCN1`, the figures for the “area under concentration-response curve” value with CU-ACC1, with CU-ACC2 and in the experiment with NCI-H295R were 495, 564 and 521, respectively.

As to `C[C@@H](CN1CC(=O)NC(=O)C1)N1CC(=O)NC(=O)C1`, the “area under concentration-response curve” value in the experiment with CU-ACC1 turned out to be 516; with CU-ACC2 it was 588; with NCI-H295R it was 478.

Source of the values: the supplement of paper PMC10949913.
